`O=C(Cc1ccccc1)N1CCCCC1`: the logP is 2.44. The molecule `Cc1cccc(C(=O)N2CCCCC2)c1` had a logP of 2.6. In the case of `Cc1ccc(C(=O)N(C(C)C)C(C)C)cc1`, the logP stood at 2.5. This logP and that of the molecule before are within 0.2 log units of each other. The value for `CC(C)N(C(=O)c1ccccc1Cl)C(C)C` was 3.

In the case of `CCNC(=O)c1ccccc1OCC`, the logP was found to be 2.4. Turning to `CN(C)C(=O)CC1CCCCC1`, the logP was determined as 2.19. With `O=C(CC1CCCCC1)N1CCCCC1`, the logP stood at 3.2. The same measure for `CCN(CC)C(=O)CC1CCCCC1`: 3.12; for `Cc1ccc(C(=O)N(C)C)cc1`: 1.72. The value for `CCNC(=O)CC1CCCCC1` was 2.28. Consider `O=C(c1ccccc1Cl)N1CCCCC1`, for which the logP came to 2.8.

`CCNC(=O)Cc1ccccc1` came in with a log partition coefficient (logP) of 1.

As for `Cc1cccc(C(=O)N(C)C)c1`, the logP was found to be 1.6.

As for `COc1ccc(C(=O)N(C(C)C)C(C)C)cc1`, the logP was found to be 2.8. With `CCNC(=O)c1ccc(C)cc1`, the logP was found to be 1.38. In turn, `CCOc1ccccc1C(=O)N1CCCCC1` came in with a logP of 2.6. The same measure for `CCOc1ccccc1C(=O)N(CC)CC`: 2.5; for `CCNC(=O)c1cccc(C)c1`: 1.32; for `CC(C)N(C(=O)Cc1ccccc1)C(C)C`: 3.1. The value for `CN(C)C(=O)Cc1ccccc1` was 1.48; that for `CCOc1ccccc1C(=O)N(C(C)C)C(C)C` was 3. `CN(C)C(=O)c1ccccc1Cl`: the logP was 1.54. For the molecule `O=C(c1ccccc1)N1CCCCC1`, the logP was 2.2.

`CC(C)N(C(=O)c1ccccc1)C(C)C` registered a logP of 2.5. The value for `Cc1ccc(C(=O)N2CCCCC2)cc1` was 2.8. The same measure for `COc1ccc(C(=O)N2CCCCC2)cc1`: 2.4. The same measure for `CCN(CC)C(=O)c1ccc(C)cc1`: 2.38; for `Cc1cccc(C(=O)N(C(C)C)C(C)C)c1`: 3; for `CCNC(=O)c1ccc(OC)cc1`: 1.14.

For the molecule `CCN(CC)C(=O)Cc1ccccc1`, the lipophilicity (logP) was determined as 2.4.

Consider `CCN(CC)C(=O)c1ccccc1Cl`, for which the logP stood at 2.1.

Broadly, the logP is a log measure of how a compound divides between an organic and an aqueous phase. Low values mean a more hydrophilic compound, high ones a more lipophilic compound.

For the origin of these results see the OPERA property sets (Mansouri et al. 2018).
